Data published in US5739127A, “2,4'-bridged bis-2,4-diaminoquinazolines” (Bayer Aktiengesellschaft, priority 1996, dated 1998).

Target: apamine binding sites (apamine-sensitive potassium channels), bovine cerebral membrane
Experiment: Binding of 125I-apamine to bovine cerebral membrane
Conditions: 30 pM 125I-apamine, bovine (calf) hippocampus membranes, 200 μg membrane protein, 60 min on ice
Description: The compounds according to the invention are ligands for apamine-sensitive potassium channels. This can be shown by studying the affinity for apamine binding sites, e.g. in bovine cerebral membranes.
1) Binding of^125 I-apamine to bovine cerebral membrane
Calf brains were obtained from the local abattoir. The hippocampus was prepared on ice and a membrane suspension was made up by homogenization twice in buffer (100 mM Tris-HCl, KCl 5 mM, pH 7.4) and centrifugation at 43,000×g. In a total volume of 500 μl, the incubation mixture contained 200 μg of membrane protein, 30 pM ^125 I-apamine and test substances in the concentration range 1×10^-9 to 1×10^-4 M. The non-specific binding of ^125 I-apamine was determined in the presence of 1×10^-7 M unlabelled apamine.
After preincubation for 30 rain at room temperature (test substances and membrane homogenate), the samples were placed on ice for 10 min before the radioligand was added. The main incubation time was 60 min on ice. When the reaction time had elapsed, an excess of ice-cooled incubation buffer was added to each sample and the mixture was filtered with suction through cellulose acetate/nitrate membrane filters. The amount of bound ^125 I-apamine was measured with a gamma counter.

## NC(=O)C1CCCN(c2nc(N3CCC(CNc4nc(N5CCCC5)nc5ccccc45)CC3)nc3ccccc23)C1 (stereo not shown) [Example 5]
  Ki: 150 nM
